Data as given in patent publication US20060069132A1, “Azolecarboxamide herbicides” (priority 2004, published 2006).

Legend:
corn = assay: Test C pre-/postemergence herbicide test; format: in vivo, Zea mays
How it was run: (§1)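 Seeds were planted and sprayed preemergence with test chemicals in a non-phytotoxic solvent mixture containing surfactant; postemergence treatments went onto plants 2 to 18 cm tall (1- to 4-leaf stage). After 12 to 14 days in a greenhouse, injury was rated visually against untreated controls on a 0–100 scale.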

[1] = tested on: common (oilseed) sunflower; assay: Test C pre-/postemergence herbicide test; format: in vivo, Helianthus annuus
How it was run: as §1

blackgrass = assay: Test B postemergence herbicide test; format: in vivo, Alopecurus myosuroides
How it was run: (§2)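 Scale 0–100: zero equals no visible effect, 100 complete control, judged by eye relative to controls. Timing: 13 to 15 days in greenhouse post-treatment. Growth stage at spraying: two leaves (paddy) or one to four leaves, 2–18 cm (postemergence).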

woolly cupgrass = assay: Test C pre-/postemergence herbicide test; format: in vivo, Eriochloa villosa
How it was run: as §1

ducksalad [2] = assay: Test C flooded paddy test; format: in vivo, Heteranthera limosa; conditions: for Plant response rating, Ducksalad: 500 g ai/ha, visual rating after 12 to 14 days
cocklebur = assay: Test C pre-/postemergence herbicide test; format: in vivo, Xanthium strumarium; conditions: for Cocklebur plant response rating: Preemergence, 500 g ai/ha, scale 0 to 100, 0 no effect, 100 complete control
How it was run: as §1

ducksalad [3] = assay: Test B flooded paddy test; format: in vivo, Heteranthera limosa; conditions: 1000 g ai/ha, scale 0 to 100 (0 no effect, 100 complete control)
How it was run: as §2

[4] = 125 g ai/ha, scale 0 (no effect) to 100 (complete control), visual, 12 to 14 days, preemergence
[5] = 250 g ai/ha, scale 0-100, preemergence
[6] = 500 g ai/ha, scale 0 to 100 (0 no effect, 100 complete control), visual, 12 to 14 days, preemergence
[7] = 62 g ai/ha, preemergence, scale 0 to 100
[8] = 125 g ai/ha, visual rating, scale 0 (no effect) to 100 (complete control), postemergence
[9] = postemergence, 500 g ai/ha, scale 0 to 100, 0 is no effect, 100 is complete control
[10] = 125 g ai/ha, scale 0 to 100 (0 no effect, 100 complete control)
[11] = 250 g ai/ha, scale of 0 to 100, 0 is no effect, 100 is complete control
[12] = scale 0 to 100 (0 no effect, 100 complete control)
[13] = 250 g ai/ha, scale 0 to 100 (0 no effect, 100 complete control), visual, 12 to 14 days, preemergence
[14] = Preemergence, 500 g ai/ha, scale 0 to 100, 0 no effect, 100 complete control

## CCc1nn(C(C)(C)C)cc1C(=O)Nc1cc(C(=O)N(C)C)ccn1 [Compound 293]
corn; [4]
  Plant response rating, Corn: 10
corn; [5]
  Plant response rating, Corn: 80
corn; [6]
  Plant response rating, Corn: 95
[1]; [7]
  Plant response rating, Sunflower: 10
[1]; [5]
  Plant response rating, Sunflower: 65
blackgrass; [8]
  Blackgrass plant response rating: 30
blackgrass; [9]
  Blackgrass plant response rating: 30
Woolly cupgrass; [7]
  Plant response rating, Cupgrass, Woolly: 45
Woolly cupgrass; [4]
  Plant response rating, Cupgrass, Woolly: 70
Woolly cupgrass; [5]
  Plant response rating, Cupgrass, Woolly: 95
Woolly cupgrass; [6]
  Plant response rating, Cupgrass, Woolly: 100
Ducksalad [2]; 62 g ai/ha, scale 0 to 100
  Ducksalad plant response rating: 0
Ducksalad [2]; [10]
  Ducksalad plant response rating: 65
Ducksalad [2]; [11]
  Ducksalad plant response rating: 80
Ducksalad [2]; [12]
  Plant response rating, Ducksalad: 95
cocklebur; [7]
  Plant response rating, Cocklebur: 0
cocklebur; [5]
  Plant response rating, Cocklebur: 20
cocklebur
  Cocklebur plant response rating: 60
Ducksalad [3]
  Ducksalad plant response rating: 80

## CCn1nc(C(C)(C)C)cc1C(=O)Nc1cc(C(=S)N(C)C)ccn1 [Compound 334]
corn; [7]
  Plant response rating, Corn: 0
corn; [4]
  Plant response rating, Corn: 20
corn; [5]
  Plant response rating, Corn: 50
[1]; [7]
  Plant response rating, Sunflower: 5
[1]; [5]
  Plant response rating, Sunflower: 55
blackgrass; [8]
  Blackgrass plant response rating: 30
blackgrass; [9]
  Blackgrass plant response rating: 70
Woolly cupgrass; [7]
  Plant response rating, Cupgrass, Woolly: 25
Woolly cupgrass; [4]
  Plant response rating, Cupgrass, Woolly: 60
Woolly cupgrass; [5]
  Plant response rating, Cupgrass, Woolly: 85
Ducksalad [2]; 62 g ai/ha, scale 0 to 100
  Ducksalad plant response rating: 75
Ducksalad [2]; [10]
  Ducksalad plant response rating: 85
Ducksalad [2]; [11]
  Ducksalad plant response rating: 85
Ducksalad [2]; [12]
  Plant response rating, Ducksalad: 90
cocklebur; [7]
  Plant response rating, Cocklebur: 30
cocklebur; [4]
  Plant response rating, Cocklebur: 60
cocklebur; [5]
  Plant response rating, Cocklebur: 70
Ducksalad [3]
  Ducksalad plant response rating: 90

## CCN(C)C(=O)c1cccc(NC(=O)c2cc(C(C)(C)C)nn2CC)c1 [Compound 48]
corn; 62 g ai/ha, preemergence
  Plant response rating (0 = no effect, 100 = complete control), Corn: 0
corn; [4]
  Plant response rating, Corn: 0
corn; [13]
  Plant response rating, Corn: 0
corn; [14]
  Corn plant response rating: 0
[1]; 62 g ai/ha, preemergence
  Plant response rating (0 = no effect, 100 = complete control), Sunflower: 0
[1]; [4]
  Plant response rating, Sunflower: 0
[1]; [13]
  Plant response rating, Sunflower: 0
[1]; [14]
  Sunflower plant response rating: 0
blackgrass; Postemergence, 125 g ai/ha, scale 0 (no effect) to 100 (complete control)
  Blackgrass plant response rating: 0
blackgrass; Postemergence, 500 g ai/ha, visual rating after 13 to 15 days, scale 0 (no effect) to 100 (complete control)
  Plant response rating, Blackgrass: 10
Woolly cupgrass; 62 g ai/ha, preemergence
  Plant response rating (0 = no effect, 100 = complete control), Cupgrass, Woolly: 0
Woolly cupgrass; [4]
  Plant response rating, Cupgrass, Woolly: 0
Woolly cupgrass; [13]
  Plant response rating, Cupgrass, Woolly: 5
Woolly cupgrass; [14]
  Cupgrass, Woolly plant response rating: 20
Ducksalad [2]; 16 g ai/ha, scale 0 to 100
  Ducksalad plant response rating: 0
Ducksalad [2]; 31 g ai/ha, scale 0 to 100
  Ducksalad plant response rating: 0
Ducksalad [2]; 62 g ai/ha, scale 0 to 100 (0 no effect, 100 complete control)
  Ducksalad plant response rating: 20
Ducksalad [2]; 125 g ai/ha, scale of 0 to 100, 0 is no effect, 100 is complete control
  Ducksalad plant response rating: 40
cocklebur; 62 g ai/ha, preemergence
  Plant response rating (0 = no effect, 100 = complete control), Cocklebur: 0
cocklebur; [4]
  Plant response rating, Cocklebur: 0
cocklebur; [13]
  Plant response rating, Cocklebur: 0
cocklebur
  Cocklebur plant response rating: 10
Ducksalad [3]; visual rating, 13 to 15 days
  Ducksalad plant response rating: 80
